Measured values as given in US20240409536A1, “COMPOUNDS AND METHODS FOR MODULATING SPLICING” (REMIX THERAPEUTICS INC., priority 2021, published 2024).
Where a name gives a salt, the structure may show the parent alone.

How the values were obtained:
K562 cells = test: Cell Titer Glo 2.0 cell viability assay in K562 cells; settings: 72 hours
Experimental: Compounds described herein were screened for toxicity in K562 (human chronic myelogenous leukemia) and SH-SY5Y (human neuroblastoma) cells using a Cell Titer Glo 2.0 assay.
Cells were plated at 500 cells/well (K562 cells) in 45 μL of IMDM supplemented with 10% FBS in a 384-well opaque plate. Wells containing only medium were used as a blank control. Test compounds (e.g., compounds of Formula (I), (II), or (III)) were first serially diluted in DMSO then diluted 1:100 with IMDM+10% FBS. The final concentration of DMSO was 0.1% in each well. The cells were incubated for 72 hours at 37° C. and 5% CO2 before assaying with Cell Titer Glo 2.0 reagent.

HiBiT-tagged MYB protein = test: HiBiT protein abundance assay, MYB (K562 HiBiT knock-in cells); assay type: cell-based, human; settings: 24 hours
Experimental: (§1) Compounds described herein were used to screen for effects on quantitative protein abundance using a HiBit assay system (Promega). Quantitative protein abundance was determined by measuring the protein levels of HiBit-tagged protein targets expressed in cell culture via luminescence using the Nano-Glo HiBiT Lytic Detection System, which uses a split complementation assay format to reconstitute NanoBiT enzyme to generate a luminescent signal. A protein abundance assay was developed such that endogenous protein targets could be modified with the HiBiT peptide tag and their abundance could be assessed after compound treatment. Briefly, K562 cell lines containing a HiBiT-modification were treated with various compounds described herein (e.g., compounds of Formulas (I), (II), or (III)). After treatment for 24 hours, the protein abundance of a specific target was determined by measuring luminescence.
(§2) • Promega Nano-Glo HiBiT Lytic Detection System (cat #N3030) • Corning 384-well TC-treated microplates (cat #3570) • Synthego Engineered Cells Knock-In Clones
(§3) Cells were maintained in IMDM with 10% FBS. Before the assay, cells were diluted with […] growth media (IMDM+1% FBS media) and were seeded in a 384-well plate at a density of 10000 cells/well (for each cell line listed in Table 6). Each compound was prepared as a 10-point 3-fold serial dilution in DMSO with the top dose at a final concentration of 10 μM in the well. Unmodified K562 cells were added at the previously specified density with DMSO to serve as an assay baseline and positive control (PC) and DMSO only with the respective modified cell lines was added to the negative control (NC) columns. Final DMSO concentration was kept at or below 0.25%. Treated cell plates were placed in an incubator at 37° C. with 5% CO2 for 24 hours. After 24 hours, 25 μL of Complete HiBit Lytic reagent was added to each well at room temperature (e.g. one plate requiring 10 mL Lytic Buffer, 100 μL LgBiT Protein, 200 μL Lytic Substrate), shaken for 5 minutes at 600 RPM, then left to sit for 10 minutes for signal to stabilize before reading on a Spark Cyto plate reader (Tecan) with a 500 ms measurement time.
(§4) To determine compound effects on protein abundance of each target in Table 6, the percent response for each respective cell line was calculated at each compound concentration as follows:
(§5) For the normalized response at each concentration, a four-parameter logistical regression was fit to the data and the response was interpolated at the 50% value to determine a concentration for protein abundance at 50% (IC50) the untreated control.

Target C = test: HiBiT protein abundance assay, Target C (K562 HiBiT knock-in cells); assay type: cell-based, human; settings: 24 hours
Experimental: as §2, §3, §4, §5

HiBiT-tagged HTT protein = test: HiBiT protein abundance assay, HTT (K562 HiBiT knock-in cells); assay type: cell-based, human; settings: 24 hours
Experimental: as §1, §2, §3, §4, §5

MYB mRNA = test: Splicing RT-qPCR assay, MYB canonical (CJ) and alternative (AJ) junction mRNA; assay type: cell-based; settings: Homo sapiens, A673 or K562 cells, 24 hours
Summary of the method: (§6)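 Canonical and alternative junction mRNAs measured by cell-lysate one-step RT-qPCR, normalized to PPIA in A673 or GAPDH/GUSB in K562. Cells received compound for 24 h at 37 °C, 5% CO2, 11-point 3-fold series from 10 uM final top dose, DMSO at most 0.25%.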

HTT mRNA = test: Splicing RT-qPCR assay, HTT canonical (CJ) and alternative (AJ) junction mRNA; assay type: cell-based; settings: Homo sapiens, A673 or K562 cells, 24 hours
Summary of the method: as §6

[1] = decrease in canonical junction mRNA
[2] = increase in alternative junction mRNA

Row | SMILES | Viability (K562 cells) | IC50 (HiBiT-tagged MYB protein) [nM] | IC50 (Target C) [nM] | IC50 (HiBiT-tagged HTT protein) [nM] | IC50 (MYB mRNA; [1]) [nM] | AC50 (MYB mRNA; [2]) [nM] | IC50 (HTT mRNA; [1]) [µM] | AC50 (HTT mRNA; [2]) [µM]
1 | Cc1cn2cc(NC(=O)c3ccc(N4CCNCC4)c4cncnc34)cc(F)c2n1 [Compound 112] | B (B represents 100-1000 nM) | < 100 | 1000 to 10000 | 100 to 1000 |  |  |  | 
2 | Cc1nc2c(F)cc(NC(=O)c3ccc(N4CCNCC4)c4ccnnc34)cc2o1 [Compound 117] | B (B represents 100-1000 nM) | < 100 | 1000 to 10000 | 100 to 1000 |  |  |  | 
3 | Cc1cn2nc(NC(=O)c3ccc(N4CCNCC4)c4ccnnc34)nc2c(C)n1 [Compound 122] | C (C represents 1000-9999 nM) | 1000 to 10000 | 1000 to 10000 | 1000 to 10000 |  |  |  | 
4 | Cc1cn2cc(NC(=O)c3ccc(N4CCNCC4)c4ccnnc34)cc(Cl)c2n1 [Compound 124] | B (B represents 100-1000 nM) | < 100 | 1000 to 10000 | 1000 to 10000 |  |  |  | 
5 | CCNC1CCN(c2ccc(C(=O)Nc3cc(F)c4nc(C)cn4c3)c3nnccc23)CC1 [Compound 139, 5-[4-(ethylamino)piperidin-1-yl]-N-{8-fluoro-2-methylimidazo[1,2-a]pyridin-6-yl}cinnoline-8-carboxamide] | A (A represents <100 nM) | < 100 | 1000 to 10000 | 100 to 1000 |  |  |  | 
6 | Cc1cn2cc(NC(=O)c3ccc(N4CCNC(C)C4)c4nccnc34)cc(F)c2n1 (stereo not drawn) [Compound 157] | A (A represents <100 nM) | < 100 | 1000 to 10000 | 1000 to 10000 |  |  |  | 
7 | Cc1cn2cc(NC(=O)c3ccc(N4CCC(N(C)C)CC4)c4nccnc34)cc(F)c2n1 [Compound 158, 8-(4-(dimethylamino)piperidin-1-yl)-N-(8-fluoro-2-methylimidazo[1,2-a]pyridin-6-yl)quinoxaline-5-carboxamide] | B (B represents 100-1000 nM) | 100 to 1000 | 1000 to 10000 | 100 to 1000 |  |  |  | 
8 | Cc1cn2cc(NC(=O)c3ccc(N4CCC5(CCN5)CC4)c4ccnnc34)cc(F)c2n1 [Compound 171, 5-{1,7-diazaspiro[3.5]nonan-7-yl}-N-{8-fluoro-2-methylimidazo[1,2-a]pyridin-6-yl}cinnoline-8-carboxamide trifluoroacetate] | B (B represents 100-1000 nM) | < 100 | 1000 to 10000 | 100 to 1000 |  |  |  | 
9 | Cc1cn2cc(NC(=O)c3ccc(N4CCN[C@H](C)C4)c4nccnc34)cc(F)c2n1 [Compound 188, N-{8-fluoro-2-methylimidazo[1,2-a]pyridin-6-yl}-8-(3-methylpiperazin-1-yl)quinoxaline-5-carboxamide] | B (B represents 100-1000 nM) | < 100 | 1000 to 10000 | 1000 to 10000 |  |  |  | 
10 | Cc1ccc2c(N3CCC4(CCN4)CC3)ccc(C(=O)Nc3cc(F)c4nc(C)cn4c3)c2n1 [Compound 195, 5-{1,7-diazaspiro[3.5]nonan-7-yl}-N-{8-fluoro-2-methylimidazo[1,2-a]pyridin-6-yl}-2-methylquinoline-8-carboxamide] | A (A represents <100 nM) | < 100 | 100 to 1000 | 100 to 1000 |  |  |  | 
11 | Cc1cnc2c(C(=O)Nc3cc(F)c4nc(C)cn4c3)ccc(N3CCNCC3)c2n1 [Compound 198] | B (B represents 100-1000 nM) | 100 to 1000 | 100 to 1000 | 100 to 1000 |  |  |  | 
12 | CN[C@H]1CCN(c2ccc(C(=O)Nc3cc(F)c4nc(C)cn4c3)c3nc(OC)cnc23)C1 [Compound 203, (S)—N-{8-fluoro-2-methylimidazo[1,2-a]pyridin-6-yl}-3-methoxy-8-[3-(methylamino)pyrrolidin-1-yl]quinoxaline-5-carboxamide; trifluoroacetic acid] | C (C represents 1000-9999 nM) | 1000 to 10000 | 1000 to 10000 | 1000 to 10000 |  |  |  | 
13 | COc1cnc2c(C(=O)Nc3cc(F)c4nc(C)cn4c3)ccc(N3CCC(N(C)C)CC3)c2n1 [Compound 224, 8-[4-(dimethylamino)piperidin-1-yl]-N-{8-fluoro-2-methylimidazo[1,2-a]pyridin-6-yl}-2-methoxyquinoxaline-5-carboxamide] | B (B represents 100-1000 nM) | < 100 | > 10000 | > 10000 |  |  |  | 
14 | Cc1cn2cc(NC(=O)c3ccc(N4CCN[C@@H](CO)C4)c4nccnc34)cc(F)c2n1 [Compound 361] | B (B represents 100-1000 nM) | 100 to 1000 | 1000 to 10000 | 1000 to 10000 | 100 to 1000 | < 100 | 1 to 10 | 1 to 10
